Where two headings read alike, the source gives them in different places.
Experiments:
adjuvant inflammation = assay: Effect of lowering local surface temperature at inflammation (adjuvant inflammation, butter bacillus, hind foot); type: in vivo, male Fisher rat; conditions: Rattus norvegicus, 6 h, read-out: Dose (mg/kg) required for lowering local temperature at inflammatory site by at least 2° C.
Protocol: 0.05 ml of a suspension of butter bacillus in liquid paraffin (10 mg/ml) was injected into the sole of the right hind foot of a male Fisher rat aged six weeks to thereby induce adjuvant inflammation. After three to five days, the surface temperature of the inflammatory foot was constantly higher by 8° to 10° C. than that of a normal foot. The test compounds as described hereinbelow and control compounds (i.e. indomethacin and pyroxycam) were each suspended in a 5% aqueous solution of gum arabic and orally administered to the rat in a dose of 5 ml/kg body weight. The local surface temperature of the inflammatory site was determined after two, four and six hours according to the method of H. Shirota et al. (cf. J. Pharmacol. Methods, 12, 35-43 (1984)). The dose required for lowering the surface temperature by at least 2° C. below that prior to the administration was calculated by averaging data of two animals, thus determining the anti-inflammatory titer of each test compound.

[1] = system: carrageenan edema at foot-sole; assay: Effect of suppressing carrageenan edema at foot-sole; type: in vivo, Male Fisher rats; conditions: 10 mg/kg, one hour before carrageenan; volume measured three hours after carrageenan injection; groups of five animals
Protocol: Male Fisher rats aged five weeks were classified into groups each having five animals. Each test compound was suspended in a 5% aqueous solution of gum arabic and administered to each rat in a dose of […] body weight. After one hour, a 1% carrageenan solution was injected into the sole of the right hind foot of the animal to thereby induce inflammation. Three hours after the carrageenan injection, the volume of the sole of each hind foot of the animal was measured to calculate the volume-gain of the foot-sole to which carrageenan was injected. The obtained data was compared with those of the control groups, thus determining the suppression ratio of the test compound. The same test compounds as used in Pharmacological Example 1 were used.

[2] = Effect of inducing gastric ulcer; type: in vivo, male Fisher rat; conditions: rat, oral, fasted 24 hours, after six hours, read-out: UD50 (50% ulcer inducing dose)
Protocol: A male Fisher rat aged seven weeks was kept fasting for 24 hours and then each test compound suspended in a 5% aqueous solution of gum arabic was orally administered thereto.

[3] = Acute Toxicity Test, rats; conditions: rat, in vivo
Protocol: (§1) LD 50 of the compound B, falling within the scope of the invention, was investigated in respect to acute toxicity, using rats and mice.
(§2) *Values were calculated according to BehrensKarber method. The oral
(§3) administration was conducted after a fasting treatment for 17 to 24 hours

[4] = Acute Toxicity Test, mice; type: in vivo; conditions: mouse, in vivo
Protocol: as §1, §2, §3

mice = assay: Acute Toxicity Test, mice; type: in vivo; conditions: oral, male mice, after fasting 17 to 24 hours
Protocol: as §1, §2, §3

[5] = oral, suspended in 5% gum arabic, temperature after two, four and six hours, averaging data of two animals

For `CN1CCC(=Cc2cc(C(C)(C)C)c(O)c(C(C)(C)C)c2)C1=O` [Compound A, N-methyl-3-(3,5-di-tert-butyl-4-hydroxybenzylidene)-2-pyrrolidone], the minimal effective dose (adjuvant inflammation; [5]) was 1 mg/kg and the Suppression ratio [1] was 36.1.

Work on `CON1CCC(=Cc2cc(C(C)(C)C)c(O)c(C(C)(C)C)c2)C1=O` [Compound B, N-methoxy-3-(3,5-di-tert-butyl-4-hydroxybenzylidene)-2-pyrrolidone] yielded a minimal effective dose (adjuvant inflammation; po) of 0.3 mg/kg, a Suppression ratio [1] of 36.4 and a TD50 at 6 h ([2]; in vivo) of 473 mg/kg. It also gave an LD50 ([3]; ip, abdominal, female rats, calculated according to Behrens-Karber method (*)) of 46.9 mg/kg, an LD50 ([3]; ip, abdominal, male rats, calculated according to Behrens-Karber method (*)) of 96.7 mg/kg and an LD50 ([3]; po, female rats, after fasting 17 to 24 hours, calculated according to Behrens-Karber method (*)) of 161 mg/kg. For the same compound, the LD50 ([3]; po, male rats, after fasting 17 to 24 hours) was 354 mg/kg, the LD50 ([3]; sc, hypodermic, female rats, confidence range 124~476) was 291 mg/kg and the LD50 ([3]; sc, hypodermic, male rats, calculated according to Behrens-Karber method (*)) was 806 mg/kg. The LD50 ([4]; ip, abdominal, female mice, confidence range 443.9~1549.3) was 805 mg/kg, the LD50 ([4]; ip, abdominal, male mice, confidence range 523~2270) was 1070 mg/kg and the LD50 ([4]; po, female mice, after fasting 17 to 24 hours) was 6870 mg/kg. The LD50 ([4]; sc, hypodermic, female mice) was over 4000 mg/kg, the LD50 ([4]; sc, hypodermic, male mice) was over 4000 mg/kg and the LD50 (mice) was 4000~2000.

Compound `CC(C)(C)c1cc(C=C2CCNC2=O)cc(C(C)(C)C)c1O` [Compound C, 3-(3,5-di-tert-butyl-4-hydroxybenzylidene)-2-pyrrolidone] has a minimal effective dose (adjuvant inflammation; [5]) of 0.3 mg/kg, a Suppression ratio [1] of 38.5 and a TD50 at 6 h ([2]; stomach) of 75.8 mg/kg.

With `COc1ccc2c(c1)c(CC(=O)O)c(C)n2C(=O)c1ccc(Cl)cc1` [Indomethacin, indomethacin, reference compound] the minimal effective dose (adjuvant inflammation; po) was 0.3 mg/kg, the Suppression ratio [1] was 37.7 and the TD50 at 6 h ([2]; in vivo) was 7.8 mg/kg.

In the case of `CN1C(C(=O)Nc2ccccn2)=C(O)c2ccccc2S1(=O)=O` [Piroxicam, reference compound], the minimal effective dose (adjuvant inflammation; [5]) is reported as 0.3 mg/kg and the TD50 at 6 h ([2]; in vivo) is reported as 23.1 mg/kg.
